The IC50 is the midpoint of a concentration-inhibition curve.

SMILES strings stand for the structures. Converted amounts (≈) assume the structure as drawn.

In this assay the test system is ADP-induced aggregation of human platelets. It is filed as cell-based. The conditions noted are these: Table 1; human platelet rich plasma; ADP 0.5 mcg/mL; read-out: Inhibition of Human Platelet Aggregation IC50 vs. ADP.

Method: The aggregometer method of Born, C. […] Clin. Med. 1964, 64, 548-599 was used to assess the in vitro activity of the various compounds as to the inhibition of adenosine diphosphate (ADP) and collagen-induced platelet aggregation. The human volunteer donor's arm is cleansed with 70% ethyl alcohol. A sterile 20 ml syringe and needle are used to withdraw 20 ml of blood. The blood is immediately added to a test tube containing 3.8% sodium citrate to prevent clotting (1 part citrate to 9 parts blood).
Platelet rich plasma (PRP) was separated by centrifugation for 10 minutes at 1000 rpm (140 xg) from citrated (3.8%) human blood. All glassware used for preparation of PRP is silicon treated. ADP in final concentration of 0.5 mcg/mL or 0.05 mL of a collagen suspension prepared according to the method described by Evans, G., et al., J. Exp. Med., 1968, 128, 877-894 was used to induce aggregation. The various compounds tested were dissolved in dimethylsulfoxide (DMSO) so that 5 mcl added to the platelet rich plasma would yield the desired test concentration. Vehicle control trials were done and compared with aggregation induced in platelet rich plasma containing various concentrations of the test compounds. Dose response curves were obtained and Inhibitor Concentration (IC50) values calculated.

Take `COC(=O)CCCCCCCCN1C(=O)C(c2ccccc2)N(c2ccccc2)C1=O` (centres unmarked) [Example 1, methyl 2,5-dioxo-3,4-diphenyl-1-imidazolidinenonanoate]: the IC50 came to 32 mg/L (≈ 75.7 µM).
The figure for `O=C(O)CCCCCCCCN1C(=O)C(c2ccccc2)N(c2ccccc2)C1=O` (centres unmarked) [Example 2, 2,5-dioxo-3,4-diphenyl-1-imidazolidinenonanoic acid] is 11.9 mg/L (≈ 29.1 µM).

For the origin of these results see US4970225A, “Imidazolidine carboxylic acids and esters as blood platelet aggregation inhibitors” (Bristol-Myers Squibb Company, priority 1990, dated 1990).
